# According to patent US12310945B2, “Cyclohexylglycine derivatives as selective cytotoxic agents” (Merck Sharp & Dohme LLC, priority 2022, dated 2025):
# Tested on: PBMCs infected with VSV-G pseudotyped HIV virus stock (VSV-G/pNLG1-P2A-AEnv)
# Test: cells
# Type: cell-based
# Conditions: Human immunodeficiency virus 1, PBMC, read-out: TACK EC50
row,SMILES,EC50
1,"N[C@H](C(=O)N1Cc2ccccc2C1)[C@H]1CC[C@H](N2CCCC2)CC1 [Example 1, (2S)-2-amino-1-(1,3-dihydroisoindol-2-yl)-2-[(1R,4S)-4-(pyrrolidin-1-yl)cyclohexyl]ethanone]",211 nM
2,N#C[C@@H]1C[C@H](F)CN1C(=O)[C@@H](N)C1CCCCC1 [Example 4],314 nM
3,N[C@H](C(=O)N1Cc2ccccc2C1)[C@H]1CC[C@@H](O)CC1 [Example 2],6420 nM
4,N[C@H](C(=O)N1Cc2ccccc2C1)C1CCCCC1 [Example 3],1410 nM
5,C#CCO[C@H]1CCN(C2CCC([C@H](N)C(=O)N3Cc4ccccc4C3)CC2)C1 (stereo partly drawn) [Example 6],230 nM
6,C#CCOCCO[C@H]1CCN(C2CCC([C@H](N)C(=O)N3Cc4ccccc4C3)CC2)C1 (stereo partly drawn) [Example 5],533 nM
